Data from ChEMBL document CHEMBL3885881, “DrugMatrix”.

Species on record: Rattus norvegicus
Assay: DrugMatrix - Regimen: Daily Repeat
Assay type: toxicity, organism-based, Sprague-Dawley
Parameters: regimen Daily Repeat, gender Male, age 6-8 weeks
Conditions: in vivo, iv, vehicle 100 % SALINE; for ABSOLUTE BASOPHIL / ABSOLUTE EOSINOPHIL / ABSOLUTE LYMPHOCYTE / ABSOLUTE MONOCYTE / ABSOLUTE SEGMENTED NEUTROPHIL / BASOPHIL / EOSINOPHIL / ERYTHROCYTE COUNT / HEMATOCRIT / HEMOGLOBIN / LEUKOCYTE COUNT / LYMPHOCYTE / MEAN CORPUSCULAR HEMOGLOBIN / MEAN CORPUSCULAR HEMOGLOBIN CONCENTRATION / MEAN CORPUSCULAR VOLUME / MONOCYTE / NEUTROPHIL / NUCLEATED RED BLOOD CELLS / PLATELET COUNT: tissue Blood; for ALANINE AMINOTRANSFERASE / ALBUMIN / ALKALINE PHOSPHATASE / ASPARTATE AMINOTRANSFERASE / BLOOD UREA NITROGEN / CARBON DIOXIDE / CHLORIDE / CHOLESTEROL / CREATINE PHOSPHOKINASE / CREATININE / GLUCOSE / LACTATE DEHYDROGENASE / LIPASE / PHOSPHORUS / POTASSIUM / SODIUM / TOTAL BILIRUBIN / TOTAL PROTEIN / URIC ACID: tissue Plasma
[1] = 0 mg/kg, 72 h, dose level Control, time 3 day
[2] = 0 mg/kg, 120 h, dose level Control, time 5 day
[3] = 3 mg/kg, 72 h, dose level Low, time 3 day

O=c1[nH]c(=O)n([C@H]2C[C@H](O)[C@@H](CO)O2)cc1F [FLOXURIDINE]
ABSOLUTE BASOPHIL [1]: 0 CELLS/uL | ABSOLUTE EOSINOPHIL [1]: 0 CELLS/uL | ABSOLUTE LYMPHOCYTE [1]: 11636.83 CELLS/uL | ABSOLUTE MONOCYTE [1]: 159 CELLS/uL | ABSOLUTE SEGMENTED NEUTROPHIL [1]: 1170.83 CELLS/uL | BASOPHIL [1]: 0% | EOSINOPHIL [1]: 0% | ERYTHROCYTE COUNT [1]: 5.46 x10E6/uL | HEMATOCRIT [1]: 34.05% | HEMOGLOBIN [1]: 13.58 G/DL | LEUKOCYTE COUNT [1]: 12.97 x10E3/uL | LYMPHOCYTE [1]: 89.67% | MEAN CORPUSCULAR HEMOGLOBIN [1]: 24.87 pg | MEAN CORPUSCULAR HEMOGLOBIN CONCENTRATION [1]: 39.9 G/DL | MEAN CORPUSCULAR VOLUME [1]: 62.3 fL | MONOCYTE [1]: 1.33% | NEUTROPHIL [1]: 9% | NUCLEATED RED BLOOD CELLS [1]: 0.17 /100WBC | PLATELET COUNT [1]: 824 x10E3/uL | ALANINE AMINOTRANSFERASE [1]: 64.83 u/L | ALBUMIN [1]: 4.08 G/DL | ALKALINE PHOSPHATASE [1]: 421 u/L | ASPARTATE AMINOTRANSFERASE [1]: 116.83 u/L | BLOOD UREA NITROGEN [1]: 16.83 mg/dL | CARBON DIOXIDE [1]: 28 mmol/L | CHLORIDE [1]: 101.33 MEQ/L | CHOLESTEROL [1]: 74.17 mg/dL | CREATINE PHOSPHOKINASE [1]: 748.5 u/L | CREATININE [1]: 0.22 mg/dL | GLUCOSE [1]: 152.83 mg/dL | LACTATE DEHYDROGENASE [1]: 578.5 u/L | LIPASE [1]: 9.83 u/L | PHOSPHORUS [1]: 11.63 mg/dL | POTASSIUM [1]: 5.93 MEQ/L | SODIUM [1]: 142.1 MEQ/L | TOTAL BILIRUBIN [1]: 0.17 mg/dL | TOTAL PROTEIN [1]: 5.77 G/DL | URIC ACID [1]: 1.43 mg/dL | ABSOLUTE BASOPHIL [2]: 0 CELLS/uL | ABSOLUTE EOSINOPHIL [2]: 159.17 CELLS/uL | ABSOLUTE LYMPHOCYTE [2]: 12267.5 CELLS/uL | ABSOLUTE MONOCYTE [2]: 30 CELLS/uL | ABSOLUTE SEGMENTED NEUTROPHIL [2]: 1160 CELLS/uL | BASOPHIL [2]: 0% | EOSINOPHIL [2]: 1.17% | ERYTHROCYTE COUNT [2]: 5.52 x10E6/uL | HEMATOCRIT [2]: 34.3% | HEMOGLOBIN [2]: 13.73 G/DL | LEUKOCYTE COUNT [2]: 13.62 x10E3/uL | LYMPHOCYTE [2]: 90.5% | MEAN CORPUSCULAR HEMOGLOBIN [2]: 24.92 pg | MEAN CORPUSCULAR HEMOGLOBIN CONCENTRATION [2]: 40.07 G/DL | MEAN CORPUSCULAR VOLUME [2]: 62.17 fL | MONOCYTE [2]: 0.17% | NEUTROPHIL [2]: 8.17% | NUCLEATED RED BLOOD CELLS [2]: 0.17 /100WBC | PLATELET COUNT [2]: 1261.83 x10E3/uL | ALANINE AMINOTRANSFERASE [2]: 58.67 u/L | ALBUMIN [2]: 4.15 G/DL | ALKALINE PHOSPHATASE [2]: 364.67 u/L | ASPARTATE AMINOTRANSFERASE [2]: 105.33 u/L | BLOOD UREA NITROGEN [2]: 17.67 mg/dL | CARBON DIOXIDE [2]: 26.5 mmol/L | CHLORIDE [2]: 101.67 MEQ/L | CHOLESTEROL [2]: 63 mg/dL | CREATINE PHOSPHOKINASE [2]: 480.67 u/L | CREATININE [2]: 0.17 mg/dL | GLUCOSE [2]: 144.67 mg/dL | LACTATE DEHYDROGENASE [2]: 540.33 u/L | LIPASE [2]: 10.33 u/L | PHOSPHORUS [2]: 11.52 mg/dL | POTASSIUM [2]: 6.12 MEQ/L | SODIUM [2]: 142.45 MEQ/L | TOTAL BILIRUBIN [2]: 0.18 mg/dL | TOTAL PROTEIN [2]: 5.73 G/DL | URIC ACID [2]: 1.48 mg/dL | ABSOLUTE BASOPHIL [3]: 0 CELLS/uL | ABSOLUTE EOSINOPHIL [3]: 0 CELLS/uL | ABSOLUTE LYMPHOCYTE [3]: 9392.67 CELLS/uL | ABSOLUTE MONOCYTE [3]: 101.67 CELLS/uL | ABSOLUTE SEGMENTED NEUTROPHIL [3]: 505.67 CELLS/uL | BASOPHIL [3]: 0% | EOSINOPHIL [3]: 0% | ERYTHROCYTE COUNT [3]: 5.12 x10E6/uL | HEMATOCRIT [3]: 32.33% | HEMOGLOBIN [3]: 13.1 G/DL | LEUKOCYTE COUNT [3]: 10 x10E3/uL | LYMPHOCYTE [3]: 94% | MEAN CORPUSCULAR HEMOGLOBIN [3]: 25.7 pg | MEAN CORPUSCULAR HEMOGLOBIN CONCENTRATION [3]: 40.53 G/DL | MEAN CORPUSCULAR VOLUME [3]: 63.17 fL | MONOCYTE [3]: 1% | NEUTROPHIL [3]: 5% | NUCLEATED RED BLOOD CELLS [3]: 0 /100WBC | PLATELET COUNT [3]: 833.67 x10E3/uL | ALANINE AMINOTRANSFERASE [3]: 54.67 u/L | ALBUMIN [3]: 4.4 G/DL | ALKALINE PHOSPHATASE [3]: 391.67 u/L | ASPARTATE AMINOTRANSFERASE [3]: 100 u/L | BLOOD UREA NITROGEN [3]: 17 mg/dL | CARBON DIOXIDE [3]: 29.67 mmol/L | CHLORIDE [3]: 101 MEQ/L | CHOLESTEROL [3]: 79 mg/dL | CREATINE PHOSPHOKINASE [3]: 755 u/L | CREATININE [3]: 0.22 mg/dL | GLUCOSE [3]: 171 mg/dL | LACTATE DEHYDROGENASE [3]: 240.33 u/L | LIPASE [3]: 9 u/L | PHOSPHORUS [3]: 10.77 mg/dL | POTASSIUM [3]: 6.26 MEQ/L | SODIUM [3]: 142.13 MEQ/L | TOTAL BILIRUBIN [3]: 0.2 mg/dL | TOTAL PROTEIN [3]: 6.17 G/DL | URIC ACID [3]: 2.23 mg/dL
